Measured values: patent US20220142990A1, “EXTERNAL PREPARATION FOR TREATING A VASCULAR ANOMALY” (OSAKA UNIVERSITY, priority 2019, published 2022)

Experiment: Test Example 4: sirolimus in blood of the patients
Format: in vivo, human
Details: Patients A, B, C; 0.2% sirolimus gel applied to lesion twice a day for 12 weeks; not detected, measurement limit value
Procedure: The gel containing 0.2 wt % of sirolimus produced in Production Example 3 (hereinafter referred to as 0.2% sirolimus gel) was applied to a lesion portion twice a day for 12 weeks. An approximate size of an application target lesion was measured to determine a single application amount. The application amount was set to about 125 mg of gel per 50 cm^2. In the sirolimus gel treatment period (12 weeks), no combined medicine was used, and no combination therapy was performed.
Sirolimus was not detected from the blood of any of the patients (measurement limit value: 1.0 ng/mL).

- sirolimus in blood: < 1.0 ng/mL
SMILES: CO[C@H]1C[C@@H]2CC[C@@H](C)[C@@](O)(O2)C(=O)C(=O)N2CCCC[C@H]2C(=O)O[C@H]([C@H](C)C[C@@H]2CC[C@@H](O)[C@H](OC)C2)CC(=O)[C@H](C)/C=C(\C)[C@@H](O)[C@@H](OC)C(=O)[C@H](C)C[C@H](C)/C=C/C=C/C=C/1C [Sirolimus, sirolimus]
